From patent publication US10517889B2, “Modulators of SMAD7 expression” (Ionis Pharmaceuticals, Inc., priority 2017, dated 2019)
Strand notation (5' to 3'): a small letter for the sugar, then the base; units joined by * are phosphorothioate-linked, units joined directly phosphodiester-linked; [ ] holds rarer units or linkages, { } end groups; capitals alone tell only the bases. k = constrained ethyl (cEt); [5mC] = 5-methylcytosine; d = 2'-deoxy (DNA)

Tested on: human SMAD7 mRNA
Experiment: Antisense inhibition of human SMAD7 mRNA expression in Hep3B cells by 3-10-3 cEt gapmers, 10,000 nM, electroporation (Example 2)
Assay type: cell-based
Settings: Hep3B cells, approximately 24 hours; for % Inhibition: SMAD7 mRNA, electroporation with 10,000 nM antisense oligonucleotide, primer probe set RTS5062, relative to untreated control cells; for % inhibition of SMAD7 mRNA expression: electroporation, 10,000 nM, 3-10-3 cEt gapmers targeting SEQ ID NO: 3 and 4
How it was run: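 SMAD7 mRNA was measured by real-time PCR (RTS5062) with RiboGreen total-RNA normalization, about 24 h after 10,000 nM gapmer was delivered by electroporation into Hep3B cells at 20,000 per well. Gapmers were 16-mer 3-10-3 cEt, fully phosphorothioate; values are % inhibition versus untreated controls.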

Substance	% Inhibition [%]	% inhibition of SMAD7 mRNA expression [%]
829920 (antisense kA*kT*kA*d[5mC]*dG*dA*dG*dT*dG*dT*dA*dT*dG*kA*kG*kT) [compound 829920]	30	–
829921 (antisense kT*k[5mC]*kA*dT*dA*d[5mC]*dG*dA*dG*dT*dG*dT*dA*kT*kG*kA) [compound 829921]	10	–
829922 (antisense kG*kT*kA*dT*d[5mC]*dA*dT*dA*d[5mC]*dG*dA*dG*dT*kG*kT*kA) [compound 829922]	56	–
829923 (kA*kG*kT*dA*dT*d[5mC]*dA*dT*dA*d[5mC]*dG*dA*dG*kT*kG*kT; antisense) [compound 829923]	54	–
829924 (k[5mC]*kT*k[5mC]*dA*dT*dT*dG*dA*dG*d[5mC]*dT*dA*dA*kG*kA*kA; antisense) [compound 829924]	25	–
829925 (kA*kT*kG*d[5mC]*dT*d[5mC]*dA*dT*dT*dG*dA*dG*d[5mC]*kT*kA*kA; antisense) [compound 829925]	37	–
829926 (k[5mC]*kA*kT*dG*d[5mC]*dT*d[5mC]*dA*dT*dT*dG*dA*dG*k[5mC]*kT*kA; antisense) [compound 829926]	24	–
829927 (kA*kA*kG*dT*d[5mC]*dT*dA*dA*dA*d[5mC]*dA*dT*dG*k[5mC]*kT*k[5mC]; antisense) [compound 829927]	64	–
829928 (k[5mC]*kA*k[5mC]*dT*dA*d[5mC]*dA*dA*dT*dG*d[5mC]*dT*dA*kA*kA*kT; antisense) [compound 829928]	26	–
829929 (kA*k[5mC]*k[5mC]*dA*dA*dT*d[5mC]*dT*dT*dG*dT*dG*dT*kT*kT*kA; antisense) [compound 829929]	19	–
829930 (k[5mC]*kA*k[5mC]*d[5mC]*dA*dA*dT*d[5mC]*dT*dT*dG*dT*dG*kT*kT*kT; antisense) [compound 829930]	0	–
829931 (kA*kA*k[5mC]*dA*d[5mC]*d[5mC]*dA*dA*dT*d[5mC]*dT*dT*dG*kT*kG*kT; antisense) [compound 829931]	0	–
829932 (kT*kG*kA*dT*dA*dA*d[5mC]*dA*d[5mC]*d[5mC]*d[5mC]*dA*dT*kA*kG*kA; antisense) [compound 829932]	41	–
829933 (kG*kT*kG*dA*dT*dA*dA*d[5mC]*dA*d[5mC]*d[5mC]*d[5mC]*dA*kT*kA*kG; antisense) [compound 829933]	38	–
829934 (kT*kA*kG*dG*dT*dG*dA*dT*dA*dA*d[5mC]*dA*d[5mC]*k[5mC]*k[5mC]*kA; antisense) [compound 829934]	26	–
829935 (k[5mC]*kT*kA*dG*dG*dT*dG*dA*dT*dA*dA*d[5mC]*dA*k[5mC]*k[5mC]*k[5mC]; antisense) [compound 829935]	0	–
829936 (k[5mC]*kA*kG*d[5mC]*dT*dA*dG*dG*dT*dG*dA*dT*dA*kA*k[5mC]*kA; antisense) [compound 829936]	14	–
829937 (kT*kT*k[5mC]*dA*dG*d[5mC]*dT*dA*dG*dG*dT*dG*dA*kT*kA*kA; antisense) [compound 829937]	0	–
829938 (kA*kT*kT*d[5mC]*dA*dG*d[5mC]*dT*dA*dG*dG*dT*dG*kA*kT*kA; antisense) [compound 829938]	17	–
829939 (kA*k[5mC]*kA*dT*dT*d[5mC]*dA*dG*d[5mC]*dT*dA*dG*dG*kT*kG*kA; antisense) [compound 829939]	34	–
829940 (kG*kT*k[5mC]*dA*dG*dT*dT*dG*dG*dT*dT*dT*dG*kA*kG*kA; antisense) [compound 829940]	–	14
829941 (k[5mC]*kA*kG*dT*d[5mC]*dA*dG*dT*dT*dG*dG*dT*dT*kT*kG*kA; antisense) [compound 829941]	–	8
829943 (kG*kG*kG*dA*dG*dA*d[5mC]*dT*d[5mC]*d[5mC]*dA*dG*dT*kT*k[5mC]*kG; antisense) [compound 829943]	–	43
